What was measured:
[1] = system: M. suipneumoniae TAM 6N; assay: MIC, anti-mycoplasmal, Friis broth solidified with 0.9% agarose; type: cell-based; conditions: inoculum 10^3 to 10^5 C.F.U., 6 days incubation at 37°C
[2] = system: M. suipneumoniae J2206/183b; assay: as above; type: cell-based; conditions: inoculum 10^3 to 10^5 C.F.U., 6 days incubation at 37°C
[3] = system: Past multocida PA1; assay: MIC, veterinary bacteria; type: cell-based; conditions: veterinary bacteria (Table 2)
[4] = system: M. bovigenitalium ATCC 14173; assay: MIC, anti-mycoplasmal, Friis broth solidified with 0.9% agarose; type: cell-based; conditions: inoculum 10^3 to 10^5 C.F.U., 6 days incubation at 37°C
[5] = system: Ps aeruginosa 10662; assay: MIC, human bacteria, serial dilution in nutrient agar; type: cell-based; conditions: nutrient agar containing 5% 'chocolated' horse blood
[6] = system: E coli E1; assay: MIC, veterinary bacteria; type: cell-based; conditions: veterinary bacteria (Table 2)
[7] = system: M. gallisepticum S6; assay: MIC, anti-mycoplasmal, Friis broth solidified with 0.9% agarose; type: cell-based; conditions: inoculum 10^3 to 10^5 C.F.U., 6 days incubation at 37°C
[8] = system: Staph aureus B4 (pen resis); assay: MIC, veterinary bacteria; type: cell-based; conditions: veterinary bacteria (Table 2)
[9] = system: K aerogenes A; assay: MIC, human bacteria, serial dilution in nutrient agar; type: cell-based; conditions: nutrient agar containing 5% 'chocolated' horse blood
[10] = system: E coli NCTC 10418; assay: as above; type: cell-based; conditions: nutrient agar containing 5% 'chocolated' horse blood
[11] = system: M. bovis NCTC 10131; assay: microbe, parasite or virus in culture; type: cell-based; conditions: M. bovis NCTC 10131; inoculum 10^3 to 10^5 C.F.U., 6 days incubation at 37°C
[12] = system: Staph aureus 152 (pen sens); assay: MIC, veterinary bacteria; type: cell-based; conditions: veterinary bacteria (Table 2)
[13] = system: S typhimurium S18; assay: MIC, veterinary bacteria; type: cell-based; conditions: veterinary bacteria (Table 2)
[14] = system: Strep suis (group D) SPS11; assay: MIC, veterinary bacteria; type: cell-based; conditions: veterinary bacteria (Table 2)
[15] = system: Staph aureus W2827; assay: MIC, human bacteria, serial dilution in nutrient agar; type: cell-based; conditions: nutrient agar containing 5% 'chocolated' horse blood
[16] = system: M. suipneumoniae PW/C/210; assay: MIC, anti-mycoplasmal, Friis broth solidified with 0.9% agarose; type: cell-based; conditions: inoculum 10^3 to 10^5 C.F.U., 6 days incubation at 37°C
[17] = system: Staph aureus Oxford; assay: MIC, veterinary bacteria; type: cell-based; conditions: veterinary bacteria (Table 2)
[18] = system: P mirabilis 889; assay: MIC, human bacteria, serial dilution in nutrient agar; type: cell-based; conditions: nutrient agar containing 5% 'chocolated' horse blood
[19] = system: Sercina lutea 8340; assay: as above; type: cell-based; conditions: nutrient agar containing 5% 'chocolated' horse blood
[20] = system: M. hyorhinis ATCC 23234; assay: MIC, anti-mycoplasmal, Friis broth solidified with 0.9% agarose; type: cell-based; conditions: inoculum 10^3 to 10^5 C.F.U., 6 days incubation at 37°C
[21] = system: Staph aureus Oxford; assay: MIC, human bacteria, serial dilution in nutrient agar; type: cell-based; conditions: nutrient agar containing 5% 'chocolated' horse blood
[22] = system: M. hyorhinis ATCC 25021; assay: MIC, anti-mycoplasmal, Friis broth solidified with 0.9% agarose; type: cell-based; conditions: inoculum 10^3 to 10^5 C.F.U., 6 days incubation at 37°C
[23] = system: M. suipneumoniae NB12; assay: as above; type: cell-based; conditions: inoculum 10^3 to 10^5 C.F.U., 6 days incubation at 37°C
[24] = system: Bord bronchisptica BO9; assay: MIC, veterinary bacteria; type: cell-based; conditions: veterinary bacteria (Table 2)
[25] = system: M. suipneumoniae Str. 11; assay: MIC, anti-mycoplasmal, Friis broth solidified with 0.9% agarose; type: cell-based; conditions: inoculum 10^3 to 10^5 C.F.U., 6 days incubation at 37°C
[26] = system: Strep pyogenes A 64/848; assay: MIC, human bacteria, serial dilution in nutrient agar; type: cell-based; conditions: nutrient agar containing 5% 'chocolated' horse blood
[27] = system: Strep agalactiae SPA1; assay: MIC, veterinary bacteria; type: cell-based; conditions: veterinary bacteria (Table 2)
[28] = system: Bord bronchiseptica BO8; assay: MIC, veterinary bacteria; type: cell-based; conditions: veterinary bacteria (Table 2)
[29] = system: M. pneumoniae ATCC 15492; assay: MIC, anti-mycoplasmal, Friis broth solidified with 0.9% agarose; type: cell-based; conditions: inoculum 10^3 to 10^5 C.F.U., 6 days incubation at 37°C
[30] = system: Haemophilus influenzae Wy21; assay: MIC, human bacteria, serial dilution in nutrient agar; type: cell-based; conditions: nutrient agar containing 5% 'chocolated' horse blood
[31] = system: S dublin S7; assay: MIC, veterinary bacteria; type: cell-based; conditions: veterinary bacteria (Table 2)
[32] = system: Strep dysgalaciae SPD1; assay: MIC, veterinary bacteria; type: cell-based; conditions: veterinary bacteria (Table 2)
[33] = system: M. suipneumoniae ATCC 25095; assay: MIC, anti-mycoplasmal, Friis broth solidified with 0.9% agarose; type: cell-based; conditions: inoculum 10^3 to 10^5 C.F.U., 6 days incubation at 37°C
[34] = system: E coli ESS; assay: MIC, human bacteria, serial dilution in nutrient agar; type: cell-based; conditions: nutrient agar containing 5% 'chocolated' horse blood
[35] = system: Neisseria catarrhalis 1502; assay: as above; type: cell-based; conditions: Neisseria catarrhalis 1502 (footnote a); nutrient agar containing 5% 'chocolated' horse blood
[36] = system: Bacillus subtilis 6633; assay: as above; type: cell-based; conditions: nutrient agar containing 5% 'chocolated' horse blood
[37] = system: M. dispar NCTC 10125; assay: MIC, anti-mycoplasmal, Friis broth solidified with 0.9% agarose; type: cell-based; conditions: inoculum 10^3 to 10^5 C.F.U., 6 days incubation at 37°C
[38] = system: M. suipneumoniae NCTC 10110; assay: as above; type: cell-based; conditions: inoculum 10^3 to 10^5 C.F.U., 6 days incubation at 37°C
[39] = system: Staph aureus Russell; assay: MIC, human bacteria, serial dilution in nutrient agar; type: cell-based; conditions: nutrient agar containing 5% 'chocolated' horse blood
[40] = system: Strep pyogenes B 2788; assay: as above; type: cell-based; conditions: nutrient agar containing 5% 'chocolated' horse blood
[41] = system: M. suipneumoniae HK(2); assay: MIC, anti-mycoplasmal, Friis broth solidified with 0.9% agarose; type: cell-based; conditions: inoculum 10^3 to 10^5 C.F.U., 6 days incubation at 37°C
[42] = system: Past multocida PA2; assay: MIC, veterinary bacteria; type: cell-based; conditions: veterinary bacteria (Table 2)
[43] = system: Erysipelothrix rhusiopathiae NCTC 8163; assay: MIC, veterinary bacteria; type: cell-based; conditions: veterinary bacteria (Table 2)
[44] = system: M. hyosynoviae ATCC 25591; assay: MIC, anti-mycoplasmal, Friis broth solidified with 0.9% agarose; type: cell-based; conditions: inoculum 10^3 to 10^5 C.F.U., 6 days incubation at 37°C
[45] = system: Past Haemolytica PA5; assay: MIC, veterinary bacteria; type: cell-based; conditions: veterinary bacteria (Table 2)
[46] = system: Strep uberis SPU1; assay: MIC, veterinary bacteria; type: cell-based; conditions: veterinary bacteria (Table 2)
[47] = system: Pasteurella multocida 1633; assay: MIC, human bacteria, serial dilution in nutrient agar; type: cell-based; conditions: nutrient agar containing 5% 'chocolated' horse blood
[48] = system: M. suipneumoniae JF 435; assay: MIC, anti-mycoplasmal, Friis broth solidified with 0.9% agarose; type: cell-based; conditions: inoculum 10^3 to 10^5 C.F.U., 6 days incubation at 37°C
[49] = system: M. suipneumoniae LABER; assay: as above; type: cell-based; conditions: inoculum 10^3 to 10^5 C.F.U., 6 days incubation at 37°C
[50] = system: Corynebacterium pyogenes CY1; assay: MIC, veterinary bacteria; type: cell-based; conditions: veterinary bacteria (Table 2)
[51] = system: pig serum; assay: Serum binding by ultrafiltration; type: in vitro ADME; conditions: compounds at 8 mcg/ml, microbiological assay (B. subtilis ATCC 6633)
Description: Serum binding was assessed by ultrafiltration of procine serum containing compounds at 8 mcg/ml, and through an Amicon CF50A ultrafiltration cone. Separation of ultrafiltrate was achieved by centrifugation.

[52] = system: Strep pyogenes C 2761; assay: MIC, human bacteria, serial dilution in nutrient agar; type: cell-based; conditions: nutrient agar containing 5% 'chocolated' horse blood
[53] = system: Strep faecalis I; assay: as above; type: cell-based; conditions: nutrient agar containing 5% 'chocolated' horse blood
[54] = system: M. suipneumoniae MS 16; assay: MIC, anti-mycoplasmal, Friis broth solidified with 0.9% agarose; type: cell-based; conditions: inoculum 10^3 to 10^5 C.F.U., 6 days incubation at 37°C
[55] = system: Corynebacterium zerosis 9755; assay: MIC, human bacteria, serial dilution in nutrient agar; type: cell-based; conditions: nutrient agar containing 5% 'chocolated' horse blood
[56] = system: E coli NCTC 10418; assay: MIC, veterinary bacteria; type: cell-based; conditions: veterinary bacteria (Table 2)
[57] = system: M. suipneumoniae UCD 1; assay: MIC, anti-mycoplasmal, Friis broth solidified with 0.9% agarose; type: cell-based; conditions: inoculum 10^3 to 10^5 C.F.U., 6 days incubation at 37°C

Substance: C^yclopentan-2-onyl monate A [Example 6]
- in vitro MIC [1]: 5.0 µg/mL
- in vitro MIC [2]: 10 µg/mL
- MIC [3]: .625 µg/mL
- in vitro MIC [4]: 0.25 µg/mL
- MIC [5]: >100 µm/ml
- MIC [6]: >80 µg/mL
- in vitro MIC [7]: >10 µg/mL
- MIC [8]: 2.5 µg/mL
- MIC [9]: >100 µm/ml
- MIC [10]: >100 µm/ml
- in vitro MIC [11]: 0.25 µg/mL
- MIC [12]: 2.5 µg/mL
- MIC [13]: >80 µg/mL
- MIC [14]: 20 µg/mL
- MIC [15]: 5.0 µm/ml
- in vitro MIC [16]: 2.5 µg/mL
- MIC [17]: 2.5 µg/mL
- MIC [18]: 100 µm/ml
- MIC [19]: >100 µm/ml
- in vitro MIC [20]: 2.5 µg/mL
- MIC [21]: 2.5 µm/ml
- in vitro MIC [22]: 2.5 µg/mL
- in vitro MIC [23]: 2.5 µg/mL
- MIC [24]: 20 µg/mL
- in vitro MIC [25]: 2.5 µg/mL
- MIC [26]: 2.5 µm/ml
- MIC [27]: 2.5 µg/mL
- MIC [28]: 80 µg/mL
- in vitro MIC [29]: 10 µg/mL
- MIC [30]: 0.5 µm/ml
- MIC [31]: >80 µg/mL
- MIC [32]: 1.25 µg/mL
- in vitro MIC [33]: 5.0 µg/mL
- MIC [34]: 2.5 µm/ml
- MIC [35]: ^a1.0 µm/ml
- MIC [36]: 2.5 µm/ml
- in vitro MIC [37]: 0.5 µg/mL
- in vitro MIC [38]: 10 µg/mL
- MIC [39]: 5.0 µm/ml
- MIC [40]: 5.0 µm/ml
- in vitro MIC [41]: 10 µg/mL
- MIC [42]: .312 µg/mL
- MIC [43]: >80 µg/mL
- in vitro MIC [44]: 2.5 µg/mL
- MIC [45]: 5 µg/mL
- MIC [46]: 1.25 µg/mL
- MIC [47]: 1.0 µm/ml
- in vitro MIC [48]: 10 µg/mL
- in vitro MIC [49]: 2.5 µg/mL
- MIC [50]: >80 µg/mL
- % bound to pig serum [51]: 35.6%
- MIC [52]: 5.0 µm/ml
- MIC [53]: >100 µm/ml
- in vitro MIC [54]: 2.5 µg/mL
- MIC [55]: >100 µm/ml
- MIC [56]: >80 µg/mL
- in vitro MIC [57]: 10 µg/mL

Reference: patent EP0025288A1, “Derivatives of monic acid, processes for their preparation, compositions containing them and their preparation” (priority 1979, dated 1981)
